Assay results taken from ChEMBL document CHEMBL1201862, “PubChem BioAssay data set” (2004).
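All cell lines were grown in 96-well plates and treated with compound for 48 hours. At the GI50, growth is halved.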 Calls of active or inactive are those of the source. Cut-off read from the data, not from the text of the source: active = GI50 up to about 1.1 µM and inactive = higher.

What was measured:
Experiment in all cases: NCI tumour cell line growth inhibition, 48 h
[1] = system: 786-0
[2] = system: A549
[3] = system: DU-145
[4] = system: EKVX
[5] = system: Hs-578T
[6] = system: IGROV-1
[7] = system: KM12
[8] = system: MDA-MB-231
[9] = system: NCI-H226
[10] = system: NCI-H23
[11] = system: OVCAR-8
[12] = system: SF-295
[13] = system: SK-MEL-28
[14] = system: SN12C
[15] = system: SW-620
[16] = system: T47D
[17] = system: TK-10
[18] = system: U-251
[19] = system: UACC-62
[20] = system: SR

Measured: GI50

COc1cc2c(OC)c3cc(C)oc(=O)c3c(O)c2c(O)c1-c1c(OC)cc2c(OC)c3cc(C)oc(=O)c3c(O)c2c1O
inactive: [1] 22.2 µM | [2] 19.4 µM | [3] 33.9 µM | [4] 21.9 µM | [5] 34.2 µM | [6] 14 µM | [7] 19.1 µM | [8] 18.4 µM | [9] 20.3 µM | [10] 16.6 µM | [11] 13 µM | [12] 18.6 µM | [13] 21.2 µM | [14] 20.7 µM | [15] 30 µM | [16] 36.4 µM | [17] 24.4 µM | [18] 15.8 µM | [19] 20.9 µM

Cc1ccc(O)c(C2=CC3=NNC(=O)C3C(c3cccc(Cl)c3)C2)c1 (configuration not stated)
inactive: [1] 52.1 µM | [2] 52.5 µM | [3] 43.4 µM | [4] 37.3 µM | [5] 36.3 µM | [6] 31.2 µM | [7] 21.8 µM | [8] 34.9 µM | [10] 36.7 µM | [11] 26.2 µM | [12] 37.6 µM | [13] 28.1 µM | [14] 32.5 µM | [20] 29.4 µM | [15] 38 µM | [16] 28.1 µM | [17] 28.1 µM | [18] 35.5 µM | [19] 24.9 µM

CC[C@H]1OC([C@H](O)C/C=C\C#C[Si](C)(C)C)C/C=C\C[C@H]1O[Si](C)(C)C(C)(C)C (some centres not stated)
inactive: [1] > 100 µM | [2] > 100 µM | [3] > 100 µM | [4] > 100 µM | [5] > 100 µM | [6] > 100 µM | [7] > 100 µM | [8] > 100 µM | [9] > 100 µM | [10] > 100 µM | [11] > 100 µM | [12] > 100 µM | [13] > 100 µM | [14] > 100 µM | [20] > 100 µM | [15] > 100 µM | [16] > 100 µM | [18] > 100 µM | [19] > 100 µM

CC#CCCCC1(C)CCCNC1=S (configuration not stated)
inactive: [1] > 10 µM | [2] > 10 µM | [3] > 10 µM | [4] > 10 µM | [5] > 10 µM | [6] > 10 µM | [7] > 10 µM | [8] > 10 µM | [10] > 10 µM | [11] > 10 µM | [12] > 10 µM | [14] > 10 µM | [20] > 10 µM | [15] > 10 µM | [16] > 10 µM | [17] > 10 µM | [18] > 10 µM | [19] > 10 µM

C[C@]12[C@@H]3CC[C@H]1[C@@H](O)C(=O)N2CC3
inactive: [1] > 100 µM | [2] > 100 µM | [3] > 100 µM | [4] > 100 µM | [5] > 100 µM | [6] > 100 µM | [7] > 100 µM | [8] > 100 µM | [10] > 100 µM | [11] > 100 µM | [12] > 100 µM | [13] > 100 µM | [14] > 100 µM | [20] > 100 µM | [15] > 100 µM | [16] > 100 µM | [17] > 100 µM | [18] > 100 µM | [19] > 100 µM

N#C[C@@H](c1ccccn1)c1ncccc1[N+](=O)[O-]
inactive: [1] > 100 µM | [2] > 100 µM | [3] > 100 µM | [4] > 100 µM | [5] > 100 µM | [6] > 100 µM | [8] > 100 µM | [10] > 100 µM | [11] > 100 µM | [12] > 100 µM | [13] > 100 µM | [14] > 100 µM | [20] > 100 µM | [15] > 100 µM | [16] > 100 µM | [18] > 100 µM | [19] > 100 µM

COc1cc2oc(-c3ccc4c(c3)OCO4)c(OC)c(=O)c2c(O)c1OC
inactive: [1] > 50 µM | [2] > 50 µM | [3] > 50 µM | [4] > 50 µM | [5] > 50 µM | [6] > 50 µM | [7] > 50 µM | [8] 45.4 µM | [9] > 50 µM | [10] 35.6 µM | [11] > 50 µM | [12] 43.8 µM | [13] > 50 µM | [14] > 50 µM | [15] > 50 µM | [16] > 50 µM | [17] > 50 µM | [18] 18.9 µM | [19] > 50 µM

CSc1cc(Cl)c(C)cc1S(=O)(=O)NC(=O)NNc1ccccn1
inactive: [1] > 100 µM | [2] > 100 µM | [3] > 100 µM | [4] > 100 µM | [5] > 100 µM | [6] > 100 µM | [7] > 100 µM | [8] > 100 µM | [9] > 100 µM | [11] > 100 µM | [12] > 100 µM | [13] > 100 µM | [14] > 100 µM | [20] > 100 µM | [15] > 100 µM | [16] > 100 µM | [18] > 100 µM

Cn1c2ccccc2c(=O)c2c(O)cc3c(c21)C=CC1(CCCCC1)O3
inactive: [1] 9.95 µM | [2] > 10 µM | [3] > 10 µM | [4] 8.41 µM | [5] 9.06 µM | [6] > 10 µM | [7] 1.62 µM | [8] > 10 µM | [9] 5.89 µM | [10] > 10 µM | [11] > 10 µM | [12] > 10 µM | [13] > 10 µM | [14] > 10 µM | [15] > 10 µM | [16] > 10 µM | [17] > 10 µM | [18] > 10 µM | [19] > 10 µM

C/C(=N\NC(=O)c1ccc(Cl)cc1)c1nc2cccnc2[nH]1
inactive: [1] 16 µM | [2] 30.2 µM | [3] 49 µM | [4] 43 µM | [5] 27.3 µM | [6] 15.1 µM | [7] 24.8 µM | [8] 36.8 µM | [10] 33.8 µM | [11] 15.5 µM | [12] 45.8 µM | [13] 27 µM | [14] 27.6 µM | [20] 18 µM | [15] 28.9 µM | [16] 22.8 µM | [17] 15.2 µM | [18] 8.93 µM | [19] 20.7 µM

C#CCC(O)c1ccc(OC)c(OCc2ccccc2)c1 (configuration not stated)
inactive: [1] > 100 µM | [2] > 100 µM | [3] > 100 µM | [4] 56.2 µM | [5] > 100 µM | [6] > 100 µM | [7] > 100 µM | [8] 59.2 µM | [9] 32.8 µM | [10] > 100 µM | [11] > 100 µM | [12] 98.4 µM | [13] > 100 µM | [14] > 100 µM | [16] > 100 µM | [17] > 100 µM | [18] > 100 µM | [19] > 100 µM

COC(=O)C1CC2CCC1(O[Si](C(C)C)(C(C)C)C(C)C)C(O)C2 (configuration not stated)
inactive: [1] 16.9 µM | [2] 16.8 µM | [3] 16.4 µM | [4] 16 µM | [5] 18.1 µM | [6] 25.8 µM | [7] 17.6 µM | [8] 17.7 µM | [9] 21.2 µM | [10] 20.9 µM | [11] 14.9 µM | [12] 20 µM | [13] 19.4 µM | [14] 17.9 µM | [20] 13.6 µM | [15] 26.4 µM | [16] 25.8 µM | [18] 16.5 µM | [19] 37 µM

Clc1ccc(Oc2ccc(/N=C/c3ccc(Cl)cc3Cl)cc2Cl)cc1
inactive: [1] 22.4 µM | [2] 64.6 µM | [3] 64.6 µM | [4] 30.1 µM | [5] 25.9 µM | [6] 44.8 µM | [7] 29.5 µM | [8] 51.3 µM | [9] > 100 µM | [10] 40.8 µM | [11] 41.2 µM | [12] 39.5 µM | [13] 34.2 µM | [14] 48.3 µM | [15] 33 µM | [16] 43.6 µM | [17] > 100 µM | [18] 29.4 µM | [19] 37.7 µM

Oc1ccc(-c2nc3cc(C(F)(F)F)ccc3n2CC2CCCN3CCCCC23)cc1 (configuration not stated)
inactive: [1] 17 µM | [3] 17.1 µM | [4] 14.8 µM | [5] 15.8 µM | [6] 12.7 µM | [7] 15.3 µM | [8] 14.5 µM | [9] 16.3 µM | [10] 16.5 µM | [11] 16 µM | [12] 13.4 µM | [13] 16.1 µM | [20] 16.6 µM | [15] 15.1 µM | [16] 18.2 µM | [17] 16.9 µM | [18] 14.8 µM

O=C1CCCC/C1=C\c1ccc([N+](=O)[O-])cc1
inactive: [1] 14.9 µM | [2] 25.5 µM | [3] 39.1 µM | [4] 39.6 µM | [5] 28.3 µM | [6] 17.1 µM | [7] 18.3 µM | [8] 21.8 µM | [10] 24 µM | [11] 19.4 µM | [12] 18.2 µM | [13] 11.4 µM | [14] 13.5 µM | [20] 20.2 µM | [15] 1.96 µM | [16] 23.6 µM | [17] 8.67 µM | [18] 16.1 µM | [19] 16.7 µM
